# Measured values as given in patent publication US20210052882A1, “ENHANCED TREATMENT VOLUME AND SELECTIVE ABLATION USING ELECTROPORATION WITH ADJUVANT CALCIUM” (Virginia Tech Intellectual Properties, Inc., priority 2019, published 2021).
# Where “and” joins values, the source holds several entries; their conditions need not be identical. Equal values may be shown once.
# Tests used:
# [1] = system: U251 malignant glioma cells; test: Reversible electroporation zone in collagen scaffolds imaged immediately after H-FIRE treatment; format: cell-based; conditions: for difference between reversible and irreversible electroporation areas: FIG. 10
# Protocol: After pulsing, CaCl2, NaCl, KCl, and CaCl2/NaCl solutions were removed and cell culture media was added to each scaffold. For irreversible threshold experiments, the scaffolds were returned to the incubator for 24 hr prior to live/dead staining. For reversible threshold experiments, scaffolds were imaged immediately after treatment.
# To visualize ablations, a live/dead stain was performed to visualize live and dead regions of cells in the scaffold. Scaffolds were incubated with 2 μM Calcein AM and 23 μM propidium iodide in phosphate buffered saline (PBS) for 30 minutes at room temperature. Scaffolds were then washed 2× with PBS prior to imaging using an inverted microscope (DMI 6000B, Leica Microsystems) with a 5× objective. Lesion areas were quantified for each treatment using a MATLAB algorithm. Since 24 h post treatment is sufficient to allow any reversibly electroporated cells to recover (as pore resealing happens on the order of minutes), staining the cells immediately after treatment and 24 h later allows for quantification of both the reversible zone of electroporation and irreversible zones of ablation.
# To stain the scaffolds, media was removed and replaced with phosphate buffered saline (PBS) containing 2 μM Calcein AM (Invitrogen) and 23 μM PI (Invitrogen) and incubated at room temperature for 30 min. Scaffolds were then washed twice with PBS prior to imaging using an inverted microscope (DMI 6000B, Leica Microsystems) with a 5× objective, filter cubes, and an EM-CCD camera (Hamamatsu C9100). The appropriate filters were used to image Calcein AM (Ex:460-500, DC: 505, EM: 570-640) and propidium iodide (EX:545/26, DC:565, EM:605/70). To determine the reversible zone of electroporation, treatment followed the same electroporation protocol, but Calcein AM and PI were added to the CaCl2 and NaCl solutions at all steps prior to pulsing. Scaffolds were then imaged immediately after treatment.
# Irreversible electroporation experiments were repeated 6-12 times for each condition. Reversible electroporation experiments were repeated at least six times. Discrepancies in the number of replicates between conditions were due to bubbles or other defects that may have changed the electric field distribution or prohibited a reliable measurement of ablation area. These scaffolds were excluded from analysis. Two-way ANOVA was used to test for differences in cell death area due to the different applied solutions and pulse waveforms. Tukey post-hoc comparisons were used to examine differences among treatment groups. Statistical analyses were performed with a confidence level of α=0.05 (MP Pro 14). Results are shown as means±standard deviation.
# To investigate how CaCl2 and NaCl treatments affect permeabilization of the cells, the areas for reversible electroporation and their corresponding reversible electric field thresholds were characterized. Reversible electroporation thresholds for H-FIRE treatment have not been extensively characterized, making this work one of the first to quantify reversible thresholds for a range of unexplored pulse durations.
# cells [2] = conditions: nsPEFs; cited from earlier work
# cells [3] = test: Toxicity of calcium chloride to cells at the concentrations used; format: cell-based
# [4] = system: U251 malignant glioma cells; test: H-FIRE ablation (lesion) area in collagen scaffolds, live/dead stain 24 hr after treatment; format: cell-based; conditions: for increase of ablation area compared to NaCl control / increase in ablation area compared to NaCl control: H-FIRE 800 V, 80 bursts
# Protocol: U251 malignant glioma cells (Sigma Aldrich, 09063001) were maintained at 5% CO2 and 37° C. in Eagle's Minimum Essential Medium (Sigma Aldrich) supplemented with 1% penicillin/streptomycin (Life Technologies), 10% fetal bovine serum (Atlanta Biologicals), 1% non-essential amino acids (Sigma Aldrich) and 1 mM sodium pyruvate (Sigma Aldrich). Cells were routinely passaged at 80-90% confluence. […] PDMS wells were treated with 1% PEI (Acros Organics) for 10 min, 0.1% glutaraldehyde (Fisher Scientific) for 20 min, and then washed twice with deionized water prior to collagen seeding to ensure collagen adhesion during treatment. Commercial rat tail collagen type I (BD Biosciences) was neutralized using a solution of 10× Dulbecco's Modified Eagle Medium (10% total volume, Sigma Aldrich), 1 N NaOH (2% collagen volume, Sigma Aldrich), and 1× Dulbecco's Modified Eagle Medium (Sigma Aldrich) to a final concentration of 5 mg/mL. […] The collagen/cell solution was dispensed into PDMS wells and PDMS tops were used to mold the collagen flat while they polymerized in a cell culture incubator for 20 min. PDMS tops were then removed and cell culture media was added. Collagen scaffolds were maintained in the incubator for 24 hr prior to treatment. […] All solutions consisted of the same base ingredients: 250 mM sucrose, 1 mM MgCl2, and 10 mM HEPES buffer in deionized water with a pH in the range of 7.2-7.4. […] Cell culture media contains things such as serum and antibiotics that may affect results. Finally, fresh solutions were added immediately prior to pulsing. All solutions were adjusted to have a pH between 7.2-7.4. The osmolarity and conductivity of the buffers used are shown in Table 1: In this example, two hollow, stainless-steel needle electrodes (Howard electronics) were inserted into the scaffolds using a custom designed electrode housing. […] H-FIRE pulses were delivered using a high-voltage pulse generator (EPULSUS®-FBM1-5, EnergyPulse Systems, Lda). Voltage waveforms were captured using a high voltage probe and oscilloscope (DPO 2012, Tektronix). […] The pulses delivered were bipolar pulses having a positive pulse duration, inter-pulse delay, and negative pulse duration (see, e.g., FIG. 1B). Inter-pulse delay was kept constant (1 μs) while pulse width was varied (1, 2, 5, 10 μs). […] For reversible threshold experiments, scaffolds were imaged immediately after treatment. To visualize ablations, a live/dead stain was performed to visualize live and dead regions of cells in the scaffold. […] Scaffolds were then washed 2× with PBS prior to imaging using an inverted microscope (DMI 6000B, Leica Microsystems) with a 5× objective. Lesion areas were quantified for each treatment using a MATLAB algorithm. Since 24 h post treatment is sufficient to allow any reversibly electroporated cells to recover (as pore resealing happens on the order of minutes), staining the cells immediately after treatment and 24 h later allows for quantification of both the reversible zone of electroporation and irreversible zones of ablation. […] Scaffolds were then washed twice with PBS prior to imaging using an inverted microscope (DMI 6000B, Leica Microsystems) with a 5× objective, filter cubes, and an EM-CCD camera (Hamamatsu C9100). The appropriate filters were used to image Calcein AM (Ex:460-500, DC: 505, EM: 570-640) and propidium iodide (EX:545/26, DC:565, EM:605/70). […] Scaffolds were then imaged immediately after treatment. […] Reversible electroporation experiments were repeated at least six times. Discrepancies in the number of replicates between conditions were due to bubbles or other defects that may have changed the electric field distribution or prohibited a reliable measurement of ablation area. These scaffolds were excluded from analysis. Two-way ANOVA was used to test for differences in cell death area due to the different applied solutions and pulse waveforms. Tukey post-hoc comparisons were used to examine differences among treatment groups. […]
# [5] = 450 V, 1 Hz, 100 μs; 80 pulses for IRE, 8 pulses for ECT; cited from earlier work
# [6] = system: U251 malignant glioma cells; test: Electric field threshold for cell death, ablation area mapped to finite element model
# Protocol: For analysis, images were separated into two channels (green—Calcein AM, red—PI) and ablation areas for the green channel were analyzed for irreversible thresholds and red channels for reversible electroporation thresholds using a custom algorithm written in MATLAB. In cases where the algorithm was unable to accurately measure ablations, coordinate points from the algorithm outlining the ablation area were used as a guide to manually trace and measure the area in ImageJ. Ablation area measurements were mapped to a finite element model of the experimental setup to determine the corresponding electric field threshold.
# Treatments were simulated using the finite element method (COMSOL Multiphysics, Burlington, Mass.) and the electric field and temperature distributions were determined. The mesh was refined until there was <1% change in the electric field and temperature values along a cutline between the electrodes. The mesh consisted of 102,615 total elements. […] From the finite element model of the collagen scaffold, a relationship between lesion area and electric field magnitude is determined by performing numerical integration on the surface of the scaffold for a range of electric field magnitudes (100-3000 V/cm). A curve was constructed and fit to the data using least squares fitting in MATLAB. […] This equation was used to accurately back out the electric field thresholds for each treatment condition without needing to manually determine them using COMSOL.
# From the finite element model, it is possible to determine the electric field threshold required for cell death.
# Using the finite element model of H-FIRE treatment in the scaffold, the corresponding electric field thresholds for each ablation area were characterized.
# [7] = Properties of solutions (conductivity, osmolarity); format: physicochemical; conditions: base 250 mM sucrose, 1 mM MgCl2, 10 mM HEPES, pH 7.2-7.4
# Protocol: All solutions consisted of the same base ingredients: 250 mM sucrose, 1 mM MgCl2, and 10 mM HEPES buffer in deionized water with a pH in the range of 7.2-7.4. […] Cell culture media contains things such as serum and antibiotics that may affect results. Finally, fresh solutions were added immediately prior to pulsing. All solutions were adjusted to have a pH between 7.2-7.4.
# cells [8] = conditions: cited from earlier work
structure (smiles),measurement,setting,value
"[Ca+2].[Cl-].[Cl-] [CaCl2, calcium chloride]",reversible zone larger than the 1 mM NaCl zone,"[1]; 1 mM CaCl2, 2-1-2 waveform",1.56 ×
same,reversible zone larger than the 1 mM NaCl zone,"[1]; 1 mM CaCl2, 5-1-5 waveform",1.7 ×
same,reversible zone larger than the 1 mM NaCl zone,"[1]; 1 mM CaCl2, 10-1-10 waveform",1.42 ×
same,reversible zone larger than the 1 mM NaCl zone,"[1]; 5 mM CaCl2, 2-1-2 waveform",1.66 ×
same,reversible zone larger than the 1 mM NaCl zone,"[1]; 5 mM CaCl2, 5-1-5 waveform",1.73 ×
same,reversible zone larger than the 1 mM NaCl zone,"[1]; 5 mM CaCl2, 10-1-10 waveform",1.46 ×
same,reversible zones larger than irreversible zones,"[1]; 2-1-2 waveform, 1 mM",2.62 ×
same,reversible zones larger than irreversible zones,"[1]; 2-1-2 waveform, 5 mM",1.47 ×
same,reversible zones larger than irreversible zones,"[1]; 5-1-5 waveform, 1 mM",1.67 ×
same,reversible zones larger than irreversible zones,"[1]; 5-1-5 waveform, 5 mM",1.3 ×
same,reversible zones larger than irreversible zones,"[1]; 10-1-10 waveform, 1 mM",1.32 ×
same,reversible zones larger than irreversible zones,"[1]; 10-1-10 waveform, 5 mM",1.59 ×
same,difference between reversible and irreversible electroporation areas,[1],decreased
same,"difference between 1 mM and 5 mM treatments, reversible case",[1]; imaged immediately after treatment,no statistically significant difference
same,cell swelling and mode of cell death,cells [2],experienced necrosis
same,toxicity to cells,cells [3],non-toxic
same,increase of ablation area compared to NaCl control,"[4]; 1 mM, 1-1-1 waveform",~2.3 ×
same,increase of ablation area compared to NaCl control,"[4]; 1 mM, 2-1-2 waveform",4.4 ×
same,increase of ablation area compared to NaCl control,"[4]; 1 mM, 5-1-5 waveform",6.1 ×
same,increase of ablation area compared to NaCl control,"[4]; 1 mM, 10-1-10 waveform",3.42 ×
same,increase in ablation area compared to NaCl control,"[4]; 5 mM, 1-1-1 waveform",3.4 ×
same,increase in ablation area compared to NaCl control,"[4]; 5 mM, 2-1-2 waveform",4.37 ×
same,increase in ablation area compared to NaCl control,"[4]; 5 mM, 5-1-5 waveform",5.24 ×
same,increase in ablation area compared to NaCl control,"[4]; 5 mM, 10-1-10 waveform",2.66 ×
same,lesion size compared with an IRE treatment without calcium,"[4]; 5 mM, same applied energy, 2, 5 and 10 μs pulse widths",comparable in size or larger
same,"ablation (lesion) sizes, calcium groups versus NaCl groups","[4]; H-FIRE, all pulse patterns",statistically significantly larger
same,5 mM CaCl2 areas versus 1 mM CaCl2 areas,"[4]; after 24 h, shorter pulse durations",larger
same,lesion area for IRE or ECT treatment when CaCl2 is added,[5],greatly increased
same,reduction of electric field threshold compared to NaCl control,"[6]; 1 mM, 1-1-1 waveform",1.24 ×
same,reduction of electric field threshold compared to NaCl control,"[6]; 1 mM, 2-1-2 waveform",1.48 ×
same,reduction of electric field threshold compared to NaCl control,"[6]; 1 mM, 2-2-2 waveform",1.5 ×
same,reduction of electric field threshold compared to NaCl control,"[6]; 1 mM, 5-1-5 waveform",2.05 ×
same,reduction of electric field threshold compared to NaCl control,"[6]; 1 mM, 5-5-5 waveform",2.1 ×
same,reduction of electric field threshold compared to NaCl control,"[6]; 1 mM, 10-1-10 waveform",2.2 × and 2.19 ×
same,"reduction of electric field threshold, 5 mM NaCl to 5 mM CaCl2",[6]; 1-1-1 waveform,1.46 ×
same,"reduction of electric field threshold, 5 mM NaCl to 5 mM CaCl2",[6]; 2-1-2 waveform,1.77 × and 1.91 ×
same,"reduction of electric field threshold, 5 mM NaCl to 5 mM CaCl2",[6]; 5-1-5 waveform,2.49 × and 2.43 ×
same,"reduction of electric field threshold, 5 mM NaCl to 5 mM CaCl2",[6]; 10-1-10 waveform,1.92 × and 1.83 ×
same,electric field threshold,"[6]; H-FIRE 10-1-10 waveform with calcium, concentration not given",784±107 V/cm
same,electric field threshold,"[6]; H-FIRE 10-1-10 waveform, 1 mM",771±129 V/cm
same,electric field threshold,[6]; IRE treatment,467±67 V/cm
same,Conductivity,[7]; 1 mM solution,0.075 ± 0.004 S/m
same,Osmolarity,[7]; 1 mM solution,289 mOsm/L
same,Conductivity,[7]; 5 mM solution,0.131 S/m
same,Osmolarity,[7]; 5 mM solution,300 mOsm/L
same,"cell death, ECT pulses with calcium versus electroporation alone",cells [8],more cell death
same,"cellular ATP, ECT pulses with calcium versus electroporation alone",cells [8],greater decrease
"[Cl-].[K+] [KCl, potassium chloride]",ablation size relative to the NaCl control,"[4]; 1 mM, H-FIRE",did not result in statistically significant ablation size
same,Conductivity,[7]; 1 mM solution,0.064 S/m
same,Osmolarity,[7]; 1 mM solution,289 mOsm/L
"[Cl-].[Na+] [NaCl, sodium chloride, reference compound]","reversible areas, NaCl solutions versus CaCl2 counterparts","[1]; 1 mM and 5 mM, all waveforms",smaller reversible areas
same,reversible zones larger than irreversible zones,"[1]; 2-1-2 waveform, 1 mM",4.68 ×
same,reversible zones larger than irreversible zones,"[1]; 2-1-2 waveform, 5 mM",3.88 ×
same,reversible zones larger than irreversible zones,"[1]; 5-1-5 waveform, 1 mM",5.58 ×
same,reversible zones larger than irreversible zones,"[1]; 5-1-5 waveform, 5 mM",3.94 ×
same,reversible zones larger than irreversible zones,"[1]; 10-1-10 waveform, 1 mM",3.17 ×
same,reversible zones larger than irreversible zones,"[1]; 10-1-10 waveform, 5 mM",2.94 ×
same,difference between reversible and irreversible electroporation areas,[1],largest
same,visible lesion after H-FIRE,[4]; shorter pulse widths,no visible lesion
same,electric field threshold,"[6]; H-FIRE 10-1-10 waveform, 1 mM",1641±159 V/cm
same,electric field threshold,[6]; IRE treatment,698±103 V/cm
same,Conductivity,[7]; 1 mM solution,0.056 ± 0.001 S/m
same,Osmolarity,[7]; 1 mM solution,287 mOsm/L
same,Conductivity,[7]; 5 mM solution,0.089 S/m
same,Osmolarity,[7]; 5 mM solution,291 mOsm/L
